Test results: patent publication US11564911B2, “Small molecule dual-inhibitors of TRPV4 and TRPA1 for sanitizing and anesthetizing” (Duke University, priority 2016, dated 2023)

Experiments:
[1] = tested on: Trpv4−/− mice, whisker-pad injection of formalin; experiment: Formalin-evoked trigeminal irritant pain, systemic (i.p.) compound, Trpv4−/− mice; format: in vivo, mouse; details: 10 mg/kg i.p.; for late-phase pain behavior: vs vehicle / vs A967079 25 mg/kg
Protocol: FIGS. 31A-31D: 16-8 and 16-19 effectively attenuate formalin-evoked trigeminal irritant pain. (FIG. 31A) Time-course of nocifensive behavior in WT mice following whisker-pad injection of 4% formalin. The mice were pre-injected (i.p., 10 mg/kg; 15 min before formalin) with GSK205, 16-8 or 16-19. Note effective reduction of nocifensive behavior in the late “neural” phase by compounds 16-8, 16-19, not by GSK205. (FIG. 31B) Cumulative response binned into 3 phases: acute phase (0-5 min), interphase (5-15 min), and late “neural” phase (15-45 min). […] (FIG. 31C) As in (FIG. 31A), but also including Trpv4^−/− mice. Compounds were applied i.p. 15 min before formalin challenge, at 10 mg/kg except established TRPA1 blocker, A967079 (25 mg/kg). Previously-established attenuated nocifensive behavior in early and late phase in Trpv4^−/− mice was recapped, which was reduced further by TRPA1 blocker, A967079. (FIG. 31D) As in (FIG. 31B), plus inclusion of Trpv4^−/− mice. Robust effects of TRPA1-blocker, A967079, were mimicked equi-potently by 16-8 and 16-19 for early phase, and by 16-8 for late phase, partially by 16-19 for late phase. (FIG. 31A, FIG. 31C) show averaged behavioral metrics per time-point, bars in (FIG. 31B, FIG. 31D) represent mean±SEM; for (D) *p<0.05; #P<0.005, one-way ANOVA; for all panels n=5-8 mice/group.
Compounds were tested for their effect in reducing pain using an in vivo pain model in mice. For mouse formalin-evoked irritant behavior measurements, mice were well-fed, well-rested, and tested at the same time of day, at the same time-point of their circadian rhythm. They were allowed to acclimate to a plexiglas chamber for at least 30 min before testing, and received 10 μL subcutaneous injection of 4% of formalin (diluted from an aqueous solution of commercial 37% formaldehyde with normal saline (NS)) through a 30-gauge needle into the right whiskerpad, as further detailed in Luccarini et al. (J. Pain, 2006, 7, 908-914). Normal saline was used as control injection. After injection, mice were immediately placed back into the chamber and the rubbing behavior was recorded by a private consumer-type video-camera for a 45 min observation period. The recording time was divided into 9 blocks of 5 min, and a nociceptive score was determined per block by measuring the time that the animals spent rubbing the injected area predominantly with the ipsilateral fore-paw and rarely with hind-paw. This rubbing behavior with fore-paw is evoked by pain, which is distinct from itch behavior. Behavioral analysis was conducted by observers blinded to treatment.
We observed significant residual irritant-pain behavior in all phases of the formalin model in Trpv4^−/− mice, consistent with our previous report^13 (FIG. 31C,D). […] A reference TRPA1-inhibitory compound, A967079, was used at 25 mg/kg body weight as a positive control to inhibit TRPA1, based on a previous report^38. Reduction of pain behavior in Trpv4^−/− mice was striking, more than 50% in the late neural phase. […] We conclude that compound 16-8 also functions as a potent TRPA1-inhibitor in an in-vivo irritant pain model specifically designed to assess the contribution of TRPA1 to trigeminal irritant pain, and at least as potent as an established reference TRPA1-antagonistic compound.

[2] = tested on: WT mice, whisker-pad injection of 4% formalin; experiment: Formalin-evoked trigeminal irritant pain, systemic (i.p.) compound, WT mice; format: in vivo, mouse; details: 10 mg/kg i.p.
Protocol: FIGS. 31A-31D: 16-8 and 16-19 effectively attenuate formalin-evoked trigeminal irritant pain. (FIG. 31A) Time-course of nocifensive behavior in WT mice following whisker-pad injection of 4% formalin. The mice were pre-injected (i.p., 10 mg/kg; 15 min before formalin) with GSK205, 16-8 or 16-19. Note effective reduction of nocifensive behavior in the late “neural” phase by compounds 16-8, 16-19, not by GSK205. (FIG. 31B) Cumulative response binned into 3 phases: acute phase (0-5 min), interphase (5-15 min), and late “neural” phase (15-45 min). […] (FIG. 31C) As in (FIG. 31A), but also including Trpv4^−/− mice. Compounds were applied i.p. 15 min before formalin challenge, at 10 mg/kg except established TRPA1 blocker, A967079 (25 mg/kg). […]
Compounds were tested for their effect in reducing pain using an in vivo pain model in mice. […] After injection, mice were immediately placed back into the chamber and the rubbing behavior was recorded by a private consumer-type video-camera for a 45 min observation period. The recording time was divided into 9 blocks of 5 min, and a nociceptive score was determined per block by measuring the time that the animals spent rubbing the injected area predominantly with the ipsilateral fore-paw and rarely with hind-paw. […]

[3] = Stability of compound in plasma; details: 4 h incubation in plasma at 37° C.
Description: Results are expressed as means±SEM, n=6 mice/experimental group for all experiments.

[4] = tested on: trigeminal formalin-evoked pain behavior; details: dose-dependent, intradermal injection; cited from earlier work
[5] = tested on: mouse paw-pad skin, UVB-photodermatitis; experiment: UVB-exposed paw-pad skin after topical GSK205: histopathology and mediators; format: in vivo
Protocol: GSK205 topical treatment: A viscous solution of 68% EtOH/5% glycerol plus 1 mM or 5 mM GSK205 (none for control) was applied to hindpaws by rubbing in 20 μL, applied at time-points 1 hour and again 10 min before UV exposure.
Routine procedures were followed as described previously (Chen et al., 2009). Mice were perfused transcardially with 30 mL PBS, followed by 30 mL 4% paraformaldehyde. Tissues, including the L5 DRGs (bilateral), and footpad preparations, were dissected and post-fixed in 4% paraformaldehyde. Tissue blocks were further cryoprotected in 30% sucrose in PBS for 24-48 hours. For mouse TRPV4, keratin-specific antibodies, phospho-ERK, IL-6, IL-1β, CXCL5 and caspase-1, tissue was prepared as frozen blocks and subsequently sectioned on a cryostat. For CD68, CD15 (neutrophil elastase) and CD3, mouse skin was prepared by 2% PFA perfusion. Footpad and DRG sections (both at 6-10 μm) were thaw-mounted, blocked with 5% normal goat serum (NGS; Jackson), then incubated overnight at 4° C. with the following primary antibodies: rabbit anti-TRPV4 (1:300; Abcam), mouse anti-keratin 14 (1:300; Abcam against C-terminal peptide beyond residue 850); rabbit anti-keratin 14 (1:1000; Fuchs-Lab), rabbit anti-phosph-ERK1/2 (1:500; Cell signaling technologies), goat anti-IL-1β (1:800; Abcam), goat anti-IL-6 (1:200; Santa Cruz Biotechnology Inc); rabbit anti-caspase-1 (1:200; Biovision Research Products, CA); goat anti-mouse LIX/CXCL5 (1:200; R&D Systems Inc), anti-CD68, anti-[…], and anti-CD3 (AbDSerotec). Immunodetection was accomplished with appropriate fluorescently-labeled secondary antibodies (AlexaFluor595, AlexaFluor488-conjugated antibodies at 1:600; Invitrogen; for CD15 biotinylated secondary antibody from donkey, 1:400 followed by rhodamine-streptavidine 1:250), or with peroxidase-linked detection reagents (for CD68) for 2 hours at room-temperature. Sections were rinsed, mounted, and cover-slipped with fluoromount (Sigma). Digital micrographs were obtained using a BX61 Olympus upright microscope, also with a Zeiss LSM510 confocal, both equipped with high-res CCD camera, and acquired with constant exposure settings, using ISEE or Zeiss Zen software. Morphometric analysis was conducted using ImageJ freeware (v1.45) with tailored regions-of-interest that spared the nuclear compartment. ImageJ was also used for determination of DRG surface area.

Structure (SMILES)	immediate-phase pain behavior [1]	late-phase pain behavior [1]	formalin-evoked pain behavior in the delayed (late, neural) phase [2]	stability in plasma [3]	trigeminal formalin-evoked pain behavior, earlier study [4]	CXCL5 upregulation in UVB-exposed footpad ([5]; topical 5 mM GSK205)	IL-1β upregulation in UVB-exposed mouse skin ([5]; topical 5 mM GSK205)	IL-6 upregulation in UVB-exposed footpad ([5]; topical 5 mM GSK205)	histopathology of UVB-exposed paw skin ([5]; topical 5 mM GSK205)	Edn1 mRNA-expression in UVB-exposed paw-pad skin ([5]; topical 5 mM GSK205, 2 h and 24 h)
CN(CCc1ccc(Nc2nc(-c3ccccc3)cs2)cc1)Cc1ccccc1 [Compound 16-8]	virtually eliminated	strikingly reduced	significant attenuation							
CCN(CCc1ccc(Nc2nc(-c3ccccc3)cs2)cc1)Cc1ccccc1 [Compound 16-19]	virtually eliminated	significantly reduced	robust effect	no loss of detectable compound						
CN(CCc1ccc(Nc2nc(-c3cccnc3)cs2)cc1)Cc1ccccc1 [GSK205]					effective attenuation	significant blocks	failed to upregulate	significant blocks	virtual elimination of inflammation	unchanged
